Each structure is given as a SMILES string. Like-named read-outs stand apart in the source and are kept apart here.

Experiment [1] deals with human fibroblasts. The experiment is described as follows: Cell proliferation of fibroblasts. The experiment is classed as cell-based. The following applies: Fibroblast, 72 hours, CYQUANT, read-out: IC50 cell proliferation of fibroblasts. Put shortly: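 Human fibroblasts plated at 600 cells/well, attached overnight, then exposed to drug in triplicate for 72 h at 37°C. Cell content read with CYQUANT GR dye in lysis buffer after 3-5 min at room temperature.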

For experiment [2], the system named is IL-1β production by THP-1 cells. The experiment is described as follows: IL-1β production by macrophages. The following applies: Homo sapiens, read-out: IC50 IL-1β production. It is filed as cell-based, human.
The test system of experiment [3] is IL-8 production by THP-1 cells. The experiment is described as follows: IL-8 production by macrophages. The experiment is classed as cell-based, human. The settings on record: Homo sapiens, read-out: IC50 IL-8 production. Here is the method: The human macrophage cell line, THP-1 was plated in a 12 well plate such that each well contains 1×10^6 cells in 2 ml of media containing 10% FCS. Opsonized zymosan was prepared by resuspending 20 mg of zymosan A in 2 ml of ddH2O and homogenizing until a uniform suspension was obtained. Homogenized zymosan was pelleted at 250 g, resuspended in 4 ml of human serum for a final concentration of 5 mg/ml, and incubated in a 37° C. water bath for 20 minutes to enable opsonization. Geldanamycin was prepared in DMSO at a concentration of 10^−2 M and serially diluted 10-fold to give a range of stock concentrations (10^−8 M to 10^−2 M).
THP-1 cells were stimulated to produce IL-8 by the addition of 1 mg/ml opsonized zymosan. Geldanamycin was added to THP-1 cells by directly adding DMSO stock solutions, prepared earlier, at a 1/1000 dilution, to each well. Each drug concentration was tested in triplicate wells. Plates were incubated at 37° C. for 24 hours.
After a 24-hour stimulation, supernatants were collected to quantify IL-8 production. IL-8 concentrations in the supernatants were determined by ELISA using recombinant human IL-8 to obtain a standard curve. A 96-well MAXISORB plate was coated with 100 μL of anti-human IL-8 Capture Antibody diluted in Coating Buffer (0.1M sodium carbonate pH 9.5) overnight at 4° C. The dilution of Capture Antibody used was lot-specific and was determined empirically. Capture antibody was then aspirated and the plate washed 3 times with Wash Buffer (PBS, 0.05% TWEEN-20). Plates were blocked for 1 hour at room temperature with 200 μL/well of Assay Diluent (PBS, 10% FCS pH 7.0). After blocking, plates were washed 3 times with Wash Buffer. Standards and sample dilutions were prepared as follows: (a) sample supernatants were diluted 1/100 and 1/1000; (b) recombinant human IL-8 was prepared at 200 pg/ml and serially diluted to yield as standard curve of 3.1 pg/ml to 200 pg/ml Sample supernatants and standards were assayed in triplicate and were incubated at room temperature for 2 hours after addition to the plate coated with Capture Antibody The plates were washed 5 times and incubated with 100 μL of Working Detector (biotinylated anti-human IL-8 detection antibody+avidin-HRP) for 1 hour at room temperature. Following this incubation, the plates were washed 7 times and 100 μL of Substrate Solution (Tetramethylbenzidine, H2O2) was added to plates and incubated for 30 minutes at room temperature. Stop Solution (2 NH2SO4) was then added to the wells and a yellow color reaction was read at 450 nm with A correction at 570 nm. Mean absorbance was determined from triplicate data readings and the mean background was subtracted. IL-8 concentration values were obtained from the standard curve. […] The IC50 values for the following additional compounds were determined using this assay: IC50 (nM): 17-AAG, 56; mycophenolic acid, 549; resveratrol, 507; rapamycin, 4; 41; SP600125, 344; halofuginone, 641; D-mannose-6-phosphate, 220; epirubicin hydrochloride, 654; topotemay, 257; mithramycin, 33; daunorubicin, 421; celastrol, 490; chromomycin A3, 36

Experiment [4] concerns Smooth muscle cells. As to the kind of experiment: Proliferation of smooth muscle cells. It is filed as cell-based. The settings on record: 72 hours, CYQUANT; read-out: IC50 proliferation of smooth muscle cells. Put shortly:
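Smooth muscle cells at 600 cells/well, exposed to paclitaxel (DMSO stocks 10^−8 to 10^−2 M) in triplicate for 72 h at 37 °C. Proliferation read with CyQUANT GR dye in lysis buffer.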

[5] abbreviates: THP-1 cells stimulated with opsonized zymosan, 24 hours.

`CC1=C(O)C(=O)C=C2C1=CC=C1[C@@]2(C)CC[C@@]2(C)[C@@H]3C[C@](C)(C(=O)O)CC[C@]3(C)CC[C@]12C` [celastrol]: the IC50 was 100 to 600 nM in experiment [1]; 23 nM in experiment [2] (THP-1, 24 h); 490 nM in experiment [3] (THP-1, 24 h); 493 nM in experiment [4].
`COc1c(C)c2c(c(O)c1C/C=C(\C)CCC(=O)O)C(=O)OC2` [mycophenolic acid]: the IC50 in experiment [1] was 100 to 600 nM; in experiment [2] (setting [5]) it was 2890 nM; in experiment [3] (setting [5]), 549 nM; in experiment [4], 579 nM.

These data come from patent US20090226500A1, “SUTURES AND ANTI-SCARRING AGENTS” (Angiotech Pharmaceuticals, Inc, priority 2006, published 2009).
